According to US8394774B2, “Pesticidal compositions” (Dow AgroSciences, LLC., priority 2009, dated 2013):

What was measured:
[1] = test system: beet armyworm (BAW; Spodoptera exigua: Lepidoptera); test: 128-well diet tray assay on beet armyworm (BAW 50); type: in vivo; details: 144 h, percent mortality, 128-well diet assay, 50 ug/cm^2 of test compound on diet, second instar BAW larvae, six days, 25° C., average of eight wells, read-out: BAW 50
Experimental: (§1) Bioassays on beet armyworm (BAW; Spodoptera exigua: Lepidoptera) were conducted using either a 96-well microtiter plate-based high throughput (HTS) bioassay or a 128-well diet tray assay. The HTS assay is based on a modification of Lewer et al. J. Nat. Prod. 2006, 69, 1506. BAW eggs were placed on top of artificial diet (100 μL) in each well of a 96-well microtiter plate. The diet was pretreated with test compounds (12 μg dissolved in 30 μL of DMSO-acetone-H2O mixture) layered on top of the diet using a liquid handling system and then allowed to dry for several hours. Infested plates were then covered with a layer of sterile cotton batting and the plate lid, and then held in the dark at 29° C. Mortality was recorded at 6 days post-treatment. Each plate had six replicates. The percent mortality was calculated from the average of the six replicates. In the case of the 128-well diet assay, three to five second instar BAW larvae were placed in each well (3 mL) of the diet tray that had been previously filled with 1 mL of artificial diet to which 50 ug/cm^2 of the test compound (dissolved in 50 μL of 90:10 acetone-water mixture) had been applied (to each of eight wells) and then allowed to dry. Trays were covered with a clear self-adhesive cover, and held at 25° C., 14:10 light-dark for six days. Percent mortality was recorded for the larvae in each well; activity in the eight wells was then averaged. In Table 4, under both the BAW HTS and BAW 50 headings, an “A” means that the compound was tested and at least 50 percent mortality was observed whereas, “B” means that either (1) the compound was tested and less than 50 percent mortality was observed or (2) the compound was not tested.

[2] = test system: beet armyworm (BAW; Spodoptera exigua: Lepidoptera); test: 96-well microtiter plate-based high throughput (HTS) bioassay on beet armyworm (BAW HTS); type: in vivo; details: 144 h, percent mortality, 96-well HTS, 12 μg test compound on diet, BAW eggs, 6 days post-treatment, 29° C., average of six replicates, read-out: BAW HTS
Experimental: as §1

For `CCO[C@@H]1[C@@H](OC)[C@H](C)O[C@@H](O/N=C/c2ccc(/C=C/c3ccc(C(O)(C(F)(F)F)C(F)(F)F)cc3)cc2)[C@@H]1OC` [Compound 11, 4-{(E)-2-[4-(2,2,2-Trifluoro-1-hydroxy-1-trifluoromethyl-ethyl)-phenyl]-vinyl}-benzaldehyde O-((2S,3R,4R,5S,6S)-4-ethoxy-3,5-dimethoxy-6-methyl-tetrahydropyran-2-yl)-oxime], the pest or weed control at 50 µg/cm2, 50 µg/cm2 [1] was under 50% and the pest or weed control at 12 µg/well, 12 µg/well [2] was over 50%.
